This is an account of results in US20030139368A1, “Antithrombotic and/or anti-inflammatory composition combining purine activity and NSAID activity” (priority 2000, published 2003).

A word on the % inhibition: it is the relative decrease from the control value, in per cent.

One series relates to human platelets. Kind of series: Response of human platelets stimulated by collagen. It is filed as cell-based. As to conditions: collagen 0.19 mg/ml; substance 0.6 mM. Here is the method: Platelet rich plasma was prepared by centrifugation using known methods.
Measurements were performed using an aggregometer marketed under the name “Chrono-log”. The measurements were processed and digitized using an “MP30 Biopac” data acquisition system.
We studied the response of human platelets stimulated by collagen (0.19 mg/ml, Biodata). Two parameters were measured: the latency time (elapsed time between bringing the platelets into contact with collagen and the beginning of aggregation) and the maximum amplitude of aggregation.

A further series concerns rat platelets. The series can be described thus: Aggregation of rat platelets (platelet rich plasma) stimulated by ADP, aggregometer. The class given is cell-based. As to conditions: for aggregation: without AMP 80%. Here is the method: Blood was collected on a citrate buffer from rats that had not received any treatment or from humans who had not received any treatment during the two weeks preceding collection of the blood sample. Platelet rich plasma was prepared by centrifugation using known methods. Measurements were performed using an aggregometer marketed under the name “Chrono-log”. The measurements were processed and digitized using an “MP30 Biopac” data acquisition system.

A further series has as its system male mice. Kind of series: Anti-inflammatory effect: carrageenan-induced inflammation in air pocket, leukocyte count in exudate. It is filed as in vivo. Conditions: for Number of leukocytes: 100 mg/kg/day by gastric gavage on days 3, 4, 5, exudate 4 hours after carrageenan, controls 9.57 ± 0.48; for % inhibition: 100 mg/kg/day by gastric gavage, versus controls. How it is done:
The test was performed on male mice weighing 20 g. This protocol lasted 5 days. On day 1, we injected 3 cm^3 of air in the dorsal part via the subcutaneous route. The resultant air pockets were reinflated on days 2, 3 and 4 with 1 cm^3 of air. […] We induced inflammation by injection of 1 ml of a 2% (weight/volume) suspension of carrageenan in PBS buffer into the air pocket. After 4 hours, the pockets were washed with 2 ml of PBS and the exudates were collected. Aliquot parts were diluted to 1:1 with a 0.01% solution of methylene blue in a PBS buffer. We then performed counting of the cells (principally neutrophils) whose accumulation was induced by the inflammation.

For the next series, the system named is gastric mucosa. The series can be described thus: Gastric toxicity, macroscopic and histologic observation of the stomach. It is filed as in vivo. As to conditions: 100 mg/kg by gavage, fasted rats, 3 hours. How it is done: This test was performed on Sprague Dawley rats (IFFA CREDO, l'Arbresle, France). The rats were in a fasting state the evening before the experiment (but drinking water was available ad libitum). […] Three hours later, the rats were sacrificed by a lethal dose of pentobarbital. The stomach was removed, opened along the greater curvature and rinsed with water. The gastric mucosa was photographed and digitized using a Macintosh G3 computer equipped with a program (NIH, USA) and a video card (Scion, USA). The stomach was fixed with buffered formalin and then processed with the conventional histological techniques for paraffin inclusion. The sections (5 μm) were then stained with hematoxylin-eosin-safranin.
Two observations were performed: macroscopic (after the stomach was collected, under the microscope) and histologic.

With `Nc1ncnc2c1ncn2[C@@H]1O[C@H](COP(=O)(O)O)[C@@H](O)[C@H]1O` [AMP, (5′-O-phosphate)adenosine], in the series with human platelets, the “latency time multiplied by (factor)” value is “circa 1.5”. In addition, in the series with human platelets, the “maximum response (maximum amplitude of aggregation) to collagen” value was “not modified”. In addition, the results for the aggregation in the series with rat platelets (ADP 20 μM in the presence of 2.5 mM AMP) and in the series on rat platelets (ADP 20 μM in the presence of 5.0 mM AMP) were 40% and 20%, respectively. Also, the “effect on aggregation already induced” value with rat platelets (ADP 20 μM, AMP 10 mM added 30 seconds later) was “immediate disaggregation”.
As to `O=C(Nc1ncnc2c1ncn2[C@@H]1O[C@H](CO)[C@@H](O)[C@H]1O)c1ccccc1O` [Example 3, adenosine N-salicylyl], in the series on male mice, the Number of leukocytes was found to be 3.80 ± 0.80 millions/ml and the “% inhibition” value amounted to 60%. Further, the “damage to the gastric wall (macroscopic and histologic)” value in the series with gastric mucosa is “did not cause damage to the gastric wall”.
Turning to `Nc1ncnc2c1ncn2[C@@H]1O[C@H](CO)[C@@H](O)[C@H]1O` [adenosine], the “aggregation compared with AMP (5 mM)” value in the series with rat platelets (ADP 20 μM, adenosine 4 mM in place of AMP 5 mM) is “Comparable results”.
For `CC(=O)Oc1ccccc1C(=O)O` [aspirin, acetylsalicylic acid], in the series on male mice, the Number of leukocytes is recorded as 6.40 ± 0.77 millions/ml and the “% inhibition” value is 33%.
In the case of `O=C([O-])c1ccccc1O.[Na+]` [sodium salicylate], in the series on rat platelets (sodium salicylate 7.5 mM added to plasma, then ADP 20 μM), the “inhibition of platelet aggregation” value is given as “No significant inhibition”.
